Legend:
[1] = target: T1, Lyp1 (Homo sapiens, UniProt Q9Y2R2); experiment: In vitro phosphatase assay with 33P labelled Raytide peptide and Lyp immunoprecipitates; assay type: biochemical; conditions: data not shown
T1 construct: made in house; host or cells: COS cells (transient transfection, pcDNA3); anti-T7 immunoprecipitate
T1 sequence (Q9Y2R2 1-807): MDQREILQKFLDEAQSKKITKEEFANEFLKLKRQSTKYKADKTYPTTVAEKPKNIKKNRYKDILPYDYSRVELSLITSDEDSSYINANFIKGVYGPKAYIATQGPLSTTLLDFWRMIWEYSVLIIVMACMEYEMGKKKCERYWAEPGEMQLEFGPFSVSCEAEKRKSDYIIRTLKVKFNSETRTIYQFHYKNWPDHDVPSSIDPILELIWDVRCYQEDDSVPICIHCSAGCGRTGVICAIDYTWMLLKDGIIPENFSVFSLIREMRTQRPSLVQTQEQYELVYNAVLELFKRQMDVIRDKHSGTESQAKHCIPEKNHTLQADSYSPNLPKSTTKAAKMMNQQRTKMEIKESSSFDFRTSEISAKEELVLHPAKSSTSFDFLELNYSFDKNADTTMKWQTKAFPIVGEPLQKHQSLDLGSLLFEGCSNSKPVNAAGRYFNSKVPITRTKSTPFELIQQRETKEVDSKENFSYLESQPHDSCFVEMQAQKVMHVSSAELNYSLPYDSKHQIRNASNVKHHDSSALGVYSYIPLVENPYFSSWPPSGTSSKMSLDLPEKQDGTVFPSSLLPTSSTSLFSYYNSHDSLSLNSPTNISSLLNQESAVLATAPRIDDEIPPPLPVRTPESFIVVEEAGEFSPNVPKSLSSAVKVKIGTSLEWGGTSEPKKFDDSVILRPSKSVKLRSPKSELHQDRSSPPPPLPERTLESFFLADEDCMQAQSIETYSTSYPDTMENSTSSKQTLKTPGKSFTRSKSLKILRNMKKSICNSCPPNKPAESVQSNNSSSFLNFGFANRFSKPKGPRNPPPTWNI
Protocol: Anti-Lyp immunoprecipitates from untransfected and pcDNA3-Lyp1 transfected cells were prepared in pervanadate free lysis buffer and incubated with ^33P labelled substrate Raytide. At the indicated time points reactions were stopped by the addition of charcoal and the free ^33P released from the peptide and now present in the supernatant measured by liquid scintillation counting.
Raytide peptide was ^33P labelled on tyrosine residues in vitro using the tyrosine kinase p60src and purified on phosphocellulose paper. Release of ^33P over time was measured in the phosphatase assay and compared to controls from untransfected cells.
Specifically, the synthetic peptide Raytide was phosphorylated according to the method described by Guan et al., (1994)(54), on tyrosine by p60src (Oncogene Science) as follows: 10 μg Raytide in 50 mM Hepes pH 7.5, 10 mM MgCl2, 0.067% mercaptoethanol, 0.05 mM ATP was incubated with 300 μCiγ^33P ATP per ml and 2 μg p60src in a final volume of 30 μl. The reaction was allowed to proceed for 30 minutes at 30° C. and was stopped by the addition of […] 10% phosphoric acid.
The sample was spotted onto two 1×1 cm sheets of P81 phophocellulose paper and extensively washed with 0.5% phosphoric acid. […]
The phosphorylated substrate was used in the phosphatase assay as described by Stueli et al (1989)(54). […] After centrifugation the free ^33P in the supernatant was measured.

[2] = tested on: Cbl; conditions: Jurkat cells, pervanadate treatment; cited from earlier work

Substance: pervanadate [reference compound]
- inhibition of Lyp tyrosine phosphatase activity [1]: completely inhibited
- phosphorylation of Cbl [2]: marked increase

From US20040006777A1, “Human lymphoid protein tyrosine phosphatases” (HSC Research and Development Limited Partnership, priority 1998, published 2004)
